Patent US20110129504A1, “COMPOSITION FOR CONTROLLING LIPASE CATALYZED REACTIONS” (NESTEC S.A., priority 2007, published 2011)

How the values were obtained:
Rhizomucor miehei lipase [1] = biological target: T1, Rhizomucor miehei lipase (Rhizomucor miehei, UniProt P19515); assay: Biphasic decane/buffer system: lipolytic hydrolysis of p-nitrophenylpalmitate; assay type: biochemical; conditions: monoglyceride 1.3 E-3 M in decane, p-nitrophenylpalmitate 2E-4M, phosphate buffer pH 5.5, 3,3 E-6 M lipase; 410 nm; vs reference without surfactant
T1 sequence (P19515 95-363): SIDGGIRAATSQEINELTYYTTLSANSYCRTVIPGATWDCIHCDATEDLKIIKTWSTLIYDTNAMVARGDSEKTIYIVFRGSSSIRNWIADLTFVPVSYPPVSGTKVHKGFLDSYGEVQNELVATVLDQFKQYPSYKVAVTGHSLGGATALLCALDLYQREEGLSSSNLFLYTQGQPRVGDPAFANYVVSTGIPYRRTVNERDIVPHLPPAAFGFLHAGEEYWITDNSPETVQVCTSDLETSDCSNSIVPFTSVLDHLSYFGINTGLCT
Description: (§1) A biphasic system was prepared in glass test tubes with the following composition: • Upper oil phase is composed of 7 ml decane in the absence (control) or presence of (1,3 E-3M) monoglyceride and 20 ul tricaprylin or p-nitrophenypalmitate (2E-4M) • Aqueous phase is composed of 2 ml phosphate buffer, pH 5.5 containing 3,3 E-6 M Rhizomucor miehei lipase. The caprylic acid generation in the presence and absence of monoglycerides (surfactant) is monitored by GC-FID. 100 ul of the upper oil phase are taken and added to 900 ul Chloroform before direct injection into the GC. The nitrophenol generation is followed by spectroscopic analysis at 410 nm of the aqueous phase. FIGS. 7 and 8 show the amount of caprylic acid formed after the lipolytic hydrolysis of the p-nitropheylpalmitate and tricaprylin in the presence of Sn1 (hydrolysable surfactants) or Sn2 (non-hydrolysable) monoglycerides. […] This is an indication that with the used monoglyceride concentration (the concentration was constant at 1.3 E-3 M) not enough surfactant is adsorbing to the water-oil interface, since the Sn2M20:4 is too lipohilic and partitions more into the bulk oil than to the interface.

Rhizomucor miehei lipase [2] = biological target: T1, Rhizomucor miehei lipase; assay: Biphasic decane/buffer system: lipolytic hydrolysis of tricaprylin; assay type: biochemical; conditions: monoglyceride 1,3 E-3M in decane, 20 ul tricaprylin, phosphate buffer pH 5.5, 3,3 E-6 M lipase; vs no surfactant; GC-FID
Description: as §1

lipase = assay: TIM gastro-intestinal model (TNO) digestion of Tricaprylin emulsion; assay type: biochemical
Description: 8 ml Tricaprylin containing 2.0 g Sn2-Monopalmitin (non-cleavable surfactant) was mixed with 200 ml phosphate buffer pH 5.5 and 20 mg/ml starch (emulsifier) using an Ultra Turrax for 2 minutes, and subsequent sonification for 10 minutes. The reference emulsion system contains the same amount of tricaprylin and starch, however, no Sn2-monopalmitin. Model digestion runs of the 2 samples were performed using a gastro-intestinal model system provided by TNO. Physiological conditions (e.g. temperature, enzyme type and load, bile salt concentration, pH) were predefined via the TIM programming system. The hydrolysis of Tricaprylin was followed by monitoring the caprylic acid release after passing the different gastro-intestinal compartments. […] The extraction of the generated fatty acids after passing the different compartments was performed by taking 100 ul of the reaction mixture, adding 900 ul chloroform together with 100 ul Chloridric acid 1M. The samples were vortexed and centrifuged at 5000 rpm for 10 min. 500 ul of the supernatant was taken and directly injected into a GC-FID. 3 samples were analysed for each reaction time at each gastro-intestinal compartment.
Additional experiments were performed where sn-2 monopalmitin was replaced Lysophosphotidilcholine (LysoPC). The effect of LysoPC on fat gastric digestion were studied.

[3] = Pendant drop interfacial tension at buffer/decane interface; assay type: physicochemical
Excerpt: The interfacial tension of pure Tricaprylin (free of any residues of polar lipids), should remain above 30 mN/m. Therefore, a more interfacial active molecule (like monocaprylin), has the capacity to exclude the triglyceride from the interface.

Compound | kinetics of nitrophenol formation from p-nitrophenylpalmitate (Rhizomucor miehei lipase [1]) | kinetics of lipolytic caprylic acid formation from tricaprylin (Rhizomucor miehei lipase [2]) | also measured
CCCCCCCC(=O)OCC(O)CO (centres unmarked) [Sn1 M8] | quite similar to the observations made in the reference system | – | –
CCCCCCCCCCCC(=O)OCC(O)CO (centres unmarked) [Sn1 M12] | quite similar to the observations made in the reference system | – | –
CCCCCCCCCCCCCCCC(=O)OCC(O)CO (centres unmarked) [Sn1-M16] | quite similar to the observations made in the reference system | – | –
CCCCCCCC(=O)OC(CO)CO [Sn2-M8] | significant reduction | reduced | –
CCCCCCCCCCCC(=O)OC(CO)CO [Sn2-M12] | significant reduction | reduced | –
CCCCCCCCCCCCCCCC(=O)OC(CO)CO [Sn2-M16, Sn-2 Monopalmitin] | significant reduction | reduced | Caprylic acid (C8) detected after passing through the ileum and jejunum (lipase; 8 ml Tricaprylin containing 2.0 g surfactant, phosphate buffer pH 5.5, starch emulsifier, vs reference emulsion without surfactant, GC-FID, FIG. 2): almost no caprylic acid is detected; caprylic acid content in the lumen of the stomach, duodenum, jejunum and in the efflux (lipase; compared with the ileum/jejunum result (almost no caprylic acid), FIGS. 3, 4 and 5): A similar result is obtained
CCCCCCCCCCCCCCCCCCCC(=O)OC(CO)CO [monoarachidin, Sn-2 monoarachidin] | – | – | interfacial tension between the buffer and the decane solution ([3]; as a function of titrated (added) surfactant, FIG. 8): induces a decrease of the measured interfacial tension
CCCCCCCC(=O)OCC(O)CO (centres unmarked) [monocaprylin] | – | – | interfacial activity compared with caprylic acid (C8) and dicaprylin (DC8) ([3]; buffer/decane interface, FIG. 9): considerably more interfacially active
Lysophosphotidilcholine [LysoPC] | – | – | gastric lipolysis of triglycerides (lipase; sn-2 monopalmitin replaced by LysoPC, lumen of stomach, FIG. 3): considerable effect in decreasing gastric lipolysis
